Data reported in patent US10456359B2, “Synergistic beverage composition” (Harsha Chigurupati, priority 2015, dated 2019).
Where a SMILES comes first, the peptide text is derived from it.

Assays:
[1] = tested on: Interferon gamma (IFN-γ); experiment: Hangover study, serum IFN-gamma, alcohol 1 day; assay type: in vivo, Wistar albino rats; parameters: concentration or dose not given beside the values; details: 1 Day alcohol
Excerpt: (§1) Distilled ethanol was obtained from Bengal Chemicals, West Bengal, India. Biochemical kits like AST, ALT, ALP and total protein were obtained from Span Diagnostics Ltd. Surat, India. Rat IL-12 ELISA kit (Elabscience Biotechnology Co. Ltd, WuHan, P.R.C.), Rat CRP ELISA kit (BD Biosciences, USA), Rat IFN-gamma ELISA kit (Biolegend, San Diego, Calif.) Rat MCP-1 ELISA kit (Elabscience Biotechnology Co. Ltd, WuHan, P.R.C.). All the chemicals used in the present study were of analytical grade and obtained from the following companies: Sigma (St. Louis, Mo., USA), Merck (Mumbai, India), S D fine chemicals (Mumbai, India) and Qualigen (Mumbai, India).
(§2) For hangover, 1 day immunology parameter were considered and for CNS, 5 days immunology parameter were considered.

[2] = tested on: interleukin-12 (IL-12); experiment: Hangover study, serum IL-12, alcohol 1 day; assay type: in vivo, Wistar albino rats; parameters: concentration or dose not given beside the values; details: 1 Day alcohol
Excerpt: as §2

[3] = tested on: Monocyte chemoattractant protein-1 (MCP-1); experiment: CNS/immunology study, serum MCP-1, alcohol 5 days; assay type: in vivo, Wistar albino rats; details: Pro: Protection (%), rats, alcohol 5 Day
Method: (§3) The lowest detectable limit of the kit is 0.1 ng/ml (Wang L, Li Y, Chen J, et al. “Ischemic Cerebral Tissue and MCP-1 Enhance Rat Bone Marrow Stromal Cell Migration in Interface Culture.” Experimental Hematology, 30, 7, 2002, 831-836).
as §2

[4] = tested on: interleukin-12 (IL-12) from brain homogenate; experiment: Hangover study, IL-12 from brain homogenate, alcohol 1 day; assay type: in vivo, Wistar albino rats; parameters: concentration or dose not given beside the values; details: 1 Day alcohol
[5] = tested on: alkaline phosphatase (ALP); details: Pro: Protection (%); rats, alcohol 4 gm/kg/day p.o., 5 days, serum
Method: The levels of alanine aminotransferase (ALT), aspartate aminotransferase (AST) and alkaline phosphatise (ALP) in serum were measured using commercial spectrophotometric kit bought from Span Diagnostic Ltd. (www.span.in) according to the manufacturer's protocols.
12-16 hours after the last dose, the animals were sacrificed and blood samples were collected for estimation of biochemical parameters.
Male Wistar albino rats weighing 150-200 g were procured and randomly divided into groups consisting of twelve (12) animals in each group. Hepatoprotection was induced by alcohol in rats by oral administration of 30% alcohol (4 gm/kg/day, p.o.) for 5 days and this group served as the negative control and treated groups received different formulation.
All drug solutions were prepared in 40% aqueous alcohol, adjusting the pH in the range of 5.0-10.0 for evaluation of alcohol induced Hepatoprotection. This solution was further diluted with distilled water to obtain 30% aqueous alcoholic solution and administered orally by gavage to different rats group of step (a).

[6] = tested on: Monocyte chemoattractant protein-1 (MCP-1) from brain homogenate; experiment: Hangover study, MCP-1 from brain homogenate, alcohol 1 day; assay type: in vivo, Wistar albino rats; details: 1 Day alcohol
[7] = tested on: interleukin-12 (IL-12); experiment: CNS/immunology study, serum IL-12, alcohol 5 days; assay type: in vivo, Wistar albino rats; details: Pro: Protection (%), rats, alcohol 5 Day
Excerpt: as §2

[8] = tested on: Monocyte chemoattractant protein-1 (MCP-1) from brain homogenate; experiment: CNS study, MCP-1 from brain homogenate, alcohol 5 days; assay type: in vivo, Wistar albino rats; details: Pro: Protection (%), rats, alcohol 5 Day
[9] = tested on: spatial learning and memory; experiment: Morris water maze task (escape latency), alcohol 5 days; assay type: in vivo, Wistar albino rats; details: Pro: Protection (%), rats, alcohol 5 day
[10] = tested on: aspartate aminotransferase (AST); experiment: Hepatoprotection study, serum AST, alcohol 5 days; assay type: in vivo, Wistar albino rats; details: Pro: Protection (%), rats, alcohol 4 gm/kg/day p.o.
[11] = tested on: Monocyte chemoattractant protein-1 (MCP-1); experiment: Hangover study, serum MCP-1, alcohol 1 day; assay type: in vivo, Wistar albino rats; parameters: concentration or dose not given beside the values; details: 1 Day alcohol
Method: as §3, §2

[12] = tested on: serum C-reactive protein (CRP); experiment: CNS/immunology study, serum CRP, alcohol 5 days; assay type: in vivo, Wistar albino rats; details: Pro: Protection (%), rats, alcohol 5 Day
Excerpt: as §2

[13] = tested on: acetylcholinesterase activity of brain homogenate; details: Hangover study, 1 Day alcohol; ingredient amounts in mass concentration (%)
Method: (§4) We have included this parameter to evaluate cognition and memory deficit in experimental animals.
(§5) Experimental Design • (b) Animal study model 1: Saline/Alcohol (4.0 gm/kg/day, p.o.)/Formulation with alcohol (4.0 gm/kg/day, p.o.) were administered (fed orally by orogastric cannula) for one day. 12-16 hours after the dose the animals were sacrificed and blood samples will be collected for estimation of biochemical parameters. Whole brain without cerebellum were dissected out, 10% homogenate was prepared with 0.1 M PB (pH 7.4). The homogenate solution was centrifuged at 10000 rpm for 20 minutes at 4° C. and the supernatant was used for estimation of acetylcholinesterase activity, which was estimated by Ellman's method (Ellman G L et al. A new and rapid colorimetric determination of acetylcholinesterase activity. Biochem Pharmacol, 1961, 7:88.) • (c) Animal study model 2: Saline/Alcohol (4.0 gm/kg/day, p.o.)/Formulation with alcohol (4.0 gm/kg/day, p.o.) were administered (fed orally by orogastric cannula) for 5 consecutive days. 12-16 hours after the last dose, the animals were sacrificed and blood samples were collected for estimation of biochemical parameters. Whole brain without cerebellum were dissected out, 10% homogenate was prepared with 0.1 M PB (pH 7.4). The homogenate solution was centrifuged at 10000 rpm for 20 minutes at 4° C. and the supernatant was used for estimation of acetylcholinesterase activity. […] The latency period of day 5 (before alcohol) was compared with post alcohol latency period (Vorhees C V and Williams M T. Morris water maze: procedures for assessing spatial and related forms of learning and memory, Nat Protoc, 2006, 1(2): 848-58.). % Protection Calculated in Above Experiments: % Protection=1−[(T−NS)/(AL−NS)]×100 T=Mean value of drug treated, NS=Mean value of normal control, AL=Mean value of alcohol alone.
(§6) Male Wistar albino rats weighing 150-200 g were procured and randomly divided into groups consisting of twelve (12) animals in each group. Alcohol induced hangover and CNS related biochemical changes and memory function in rats by oral administration of 30% alcohol (4 gm/kg/day, p.o.) for 1 and 5 days and this group served as the negative control and treated groups received different formulation.
(§7) All drug solutions were prepared in 40% aqueous alcohol, adjusting the pH in the range of 5.0-10.0 for evaluation of alcohol induced hangover and CNS related biochemical parameters.

[14] = tested on: interleukin-12 (IL-12) from brain homogenate; experiment: CNS study, IL-12 from brain homogenate, alcohol 5 days; assay type: in vivo, Wistar albino rats; details: Pro: Protection (%), rats, alcohol 5 Day
[15] = tested on: serum C-reactive protein (CRP); experiment: Hangover study, serum CRP, alcohol 1 day; assay type: in vivo, Wistar albino rats; details: 1 Day alcohol
Excerpt: as §2

[16] = tested on: serum alanine aminotransferase (ALT); experiment: Hepatoprotection study, serum ALT, alcohol 5 days; assay type: in vivo, Wistar albino rats; details: Pro: Protection (%), rats, alcohol 4 gm/kg/day p.o.
[17] = tested on: acetylcholinesterase activity of brain homogenate; details: Pro: Protection (%), rats, alcohol 5 Day
Method: as §4, §5, §6, §7

[18] = tested on: Interferon gamma (IFN-γ); experiment: CNS/immunology study, serum IFN-gamma, alcohol 5 days; assay type: in vivo, Wistar albino rats; details: Pro: Protection (%), rats, alcohol 5 Day
Excerpt: as §1, §2

[19] = tested on: serum ALT, AST and ALP; experiment: Hepatoprotection study overall (rise of serum ALT, AST and ALP), 5 alcohol doses; assay type: in vivo, Wistar albino rats; details: 5 alcohol doses of 4 gm/kg per oral

Compound	IFN-Gamma Pro (Protection) [1] [%]	IL12 Pro (Protection) [2] [%]	MCP-1 Pro [3] [%]	Brain IL12 Pro (Protection) [4] [%]	ALP Pro [5] [%]	Brain MCP-1 Pro (Protection) [6] [%]	IL12 Pro [7] [%]	Brain MCP-1 Pro [8] [%]	WATER MAZE Pro [9] [%]	AST Pro [10] [%]	MCP-1 Pro (Protection) [11] [%]	CRP Pro [12] [%]	ACHe Pro (Protection) [13] [%]	Brain IL12 Pro [14] [%]	CRP Pro (Protection) [15] [%]	ALT Pro [16] [%]	ACHe Pro [17] [%]	IFN-Gamma Pro [18] [%]	further results
CC1(C(=O)O)CCC2(C)CCC3(C)C(=CC(=O)C4C5(C)CCC(OC6OC(C(=O)O)C(O)C(O)C6OC6OC(C(=O)O)C(O)C(O)C6O)C(C)(C)C5CCC43C)C2C1 (stereo not drawn) [0.04 GA, 18β-GA]	1.25	1.05	3.38	1.09	2.78	1.15	3.08	1.58	1.58	2.18	0.6	2.37	0.59	1.28	2.04	0.89	1.43	1.07	–
CC1(C(=O)O)CCC2(C)CCC3(C)C(=CC(=O)C4C5(C)CCC(OC6OC(C(=O)O)C(O)C(O)C6OC6OC(C(=O)O)C(O)C(O)C6O)C(C)(C)C5CCC43C)C2C1 (stereo not drawn) [0.04a GA, 18α-GA]	0.1	0.1	0.1	0.1	1.08	0.1	0.1	0.1	2.1	2.24	0.1	0.1	0.1	0.1	0.1	1.26	0.1	0.1	–
C[C@H](N)C(=O)N[C@@H](CCC(N)=O)C(=O)O [0.5 DP, L-Ala-L-Gln] (H-Ala-Gln-OH)	2.58	0.54	0.1	3.69	6.95	4.59	2.64	5.12	5.18	5.86	4.33	6.13	4.33	2.35	4.05	9.13	4.33	3.32	–
C[C@H](N)C(=O)N[C@@H](CCC(N)=O)C(=O)O [0.75 DP, L-Ala-L-Gln] (H-Ala-Gln-OH)	6.38	14.84	0.75	7.14	12.24	10.14	13.88	9.63	13.15	9.14	5.25	3.78	8.94	7.01	15.93	5.28	6.73	5.62	–
CC1(C(=O)O)CCC2(C)CCC3(C)C(=CC(=O)C4C5(C)CCC(OC6OC(C(=O)O)C(O)C(O)C6OC6OC(C(=O)O)C(O)C(O)C6O)C(C)(C)C5CCC43C)C2C1 (stereo not drawn) [GA, 18-beta-Glycyrrhizin]	–	–	–	–	–	–	–	–	–	–	–	–	–	–	–	–	–	–	degree of protection ([19]; GA as such at 0.04-0.3%): 5-25%
C[C@H](N)C(=O)N[C@@H](CCC(N)=O)C(=O)O [L-alanine-L-glutamine (DP), L-alanyl-L-glutamine] (H-Ala-Gln-OH)	–	–	–	–	–	–	–	–	–	–	–	–	–	–	–	–	–	–	degree of protection ([19]; dose level of 0.5 to 1.0%): mild effect; degree of protection ([19]; higher doses (2.0 to 3.0%)): high degree of protection
OC[C@@H](O)[C@@H](O)[C@H](O)[C@H](O)CO [Mannitol, D-Mannitol]	–	–	–	–	–	–	–	–	–	–	–	–	–	–	–	–	–	–	degree of protection ([19]; individual ingredient at 0.5 to […]): 10-38%
